Reference: publication PMC5882628, “Development of a Cell-Based Assay to Assess Binding of the proNGF Prodomain to Sortilin” (Cellular and Molecular Neurobiology, 2017)

Key:
sortilin [1] = molecular target: T1, sortilin (Homo sapiens, UniProt Q99523); assay: Cell-based assay of GSTpro (NGF prodomain) binding/uptake, wt sortilin-transfected HEK293 cells, sortilin/GST double stain, high content imaging, with detergent; details: Fig. 6a; with detergent; sortilin-positive cells; preincubation 1 h, GSTpro 45 min
T1 construct: They were transfected with plasmids either encoding wild type sortilin, or sortilin with a mutation that renders it endocytosis deficient; expressed in transfected cells; host or cells: HEK 293 cells, transient transfection (lipofectamine)
T1 sequence (Q99523 78-831): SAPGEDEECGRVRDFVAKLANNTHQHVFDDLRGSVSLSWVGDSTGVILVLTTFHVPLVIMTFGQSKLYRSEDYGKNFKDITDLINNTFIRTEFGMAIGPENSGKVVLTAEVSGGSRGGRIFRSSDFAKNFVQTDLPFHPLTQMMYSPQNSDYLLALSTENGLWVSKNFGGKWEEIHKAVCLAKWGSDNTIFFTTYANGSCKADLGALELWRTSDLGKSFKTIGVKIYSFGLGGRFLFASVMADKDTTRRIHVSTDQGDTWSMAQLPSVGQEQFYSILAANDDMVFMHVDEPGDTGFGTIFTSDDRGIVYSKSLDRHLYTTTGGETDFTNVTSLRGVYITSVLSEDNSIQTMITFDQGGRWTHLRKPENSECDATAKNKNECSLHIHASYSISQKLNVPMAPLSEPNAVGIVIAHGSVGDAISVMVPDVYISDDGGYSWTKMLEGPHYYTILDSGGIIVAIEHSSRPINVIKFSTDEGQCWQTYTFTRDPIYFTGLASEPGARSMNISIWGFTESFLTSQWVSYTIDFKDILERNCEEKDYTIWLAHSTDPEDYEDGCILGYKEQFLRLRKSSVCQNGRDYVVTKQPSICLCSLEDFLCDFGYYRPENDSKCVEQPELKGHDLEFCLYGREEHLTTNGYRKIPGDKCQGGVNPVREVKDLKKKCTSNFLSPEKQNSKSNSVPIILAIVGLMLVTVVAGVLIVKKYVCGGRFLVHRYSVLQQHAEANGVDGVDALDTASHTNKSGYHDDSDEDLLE
Method: HEK 293 cells were grown in DMEM with 10% fetal bovine serum. They were transfected with plasmids either encoding wild type sortilin, or sortilin with a mutation that renders it endocytosis deficient, or an empty control vector according to manufacturer’s instructions using 20 µg lipofectamine (Thermo Fischer Scientific) with 8 µg DNA on […] per 6 cm, poly-lysine coated dish. The cells were initially plated into 24-well dishes after transfection. That intermediate step rendered more uniform cell numbers in the 96-well dishes that were used to run the actual assay. 24 h later, cells were split into black opaque-walled, clear-bottom 96 well dishes at 42000 cells in 80 µl medium/well. […] 1 h after that treatment, the medium was replaced with 80 µl medium containing the same antibody, compounds or peptides included in the preincubation medium, plus recombinant GSTpro or proNGF (either purified in-house from recombinant HEK cells or derived from an E.coli expression system at either 0 nM (negative control), or 50 nM, or, in a few instances at 5 or 10 nM. The respective concentrations are indicated in the figures 45 min after adding GSTpro or proNGF, cells were washed twice with prewarmed PBS and fixed in 4% PFA for 20 min at approximately 20 °C.
The fixed cells were washed with PBS for 15 min, followed by two 15 min washes with PBS with 0.1% Triton X-100. […] Wells to be evaluated for blocking of the sortilin-GSTpro interaction by antibodies were only stained with an antibody against the pro domain of proNGF in 10% FBS at a dilution of 1:1500 (Millipore (N-term) clone EPI318Y, Rabbit Monoclonal Antibody Catalog Number: #04-1142). […]
The following day, wells were washed 3 × 15 min with PBS/0.1% Triton X-100. […] Cellular fluorescence was quantified using an array scanner and the “Neuronal Profiler” Bioapplication (Thermo Fisher Scientific) as described below.
Sortilin-GSTpro interaction was also assessed using HEK cell derived cell lines stably expressing sortilin. […]
Images from 96 well dishes were automatically recorded with a Cellomics ArrayScan VTI HCS Reader (Thermo Scientific) using a 10× microscope objective and the build-in standard autofocus method. Fifteen 1024 × 1024 images in 4 channels (Channel 1 and 2: Filter XF5–Hoechst, to detect nuclei and all cells; Channel 3: XF53-Texas Red to detect, e.g., sortilin-positive cells; Channel 4: Filter XF93 – FITC, to detect cells positive, e.g., for the proNGF pro domain) were recorded per 96 well.
The images were analyzed with the Cellomics assay algorithm NeuronalProfiling.V3.5.

wt sortilin = assay: Competition of proNGF against GSTpro binding to wt sortilin-transfected HEK cells (stained for GST); format: cell-based, human; details: 5, 10, or 25 nM GSTpro concomitantly with 50 nM proNGF; Fig. 3v
Method: HEK 293 cells were grown in DMEM with 10% fetal bovine serum. They were transfected with plasmids either encoding wild type sortilin, or sortilin with a mutation that renders it endocytosis deficient, or an empty control vector according to manufacturer’s instructions using 20 µg lipofectamine (Thermo Fischer Scientific) with 8 µg DNA on […] per 6 cm, poly-lysine coated dish. The cells were initially plated into 24-well dishes after transfection. That intermediate step rendered more uniform cell numbers in the 96-well dishes that were used to run the actual assay. […]
A-T Immunohistochemistry on HEK 293 cells using Hoechst staining (nuclei); anti-sortilin staining; or staining directed against the pro domain of proNGF (proNGF/GSTpro); or composite image showing all staining concomitantly as indicated above the panels. a–d Cells transfected with an empty expression vector and treated with GSTpro. e–h Cells transfected with a sortilin expression construct, but not treated with GSTpro. i–l Cells transfected with sortilin and GSTpro treated. m–p, Cells transfected with sortilin and proNGF purified from recombinant E.coli. q–t Cells transfected with sortilin and proNGF purified from a eukaryotic expression system. […] Black columns: Total fluorescence intensity of “sortilin-negative” cells. Red columns: Total fluorescence intensity of sortilin positive cells. […]

[2] = molecular target: internalization-mutant sortilin (human) (UniProt Q99523); assay: immunostaining of cells or tissue; HEK293 cells transiently transfected with sortilin (or empty vector) in 96-well dishes, treated 45 min with 50 nM GSTpro or proNGF, washed, fixed, permeabilised (0.1% Triton X-100), stained for sortilin and for GST or the pro domain; automated array-scanner analysis of sortilin-positive and sortilin-negative cells
proNGF (Homo sapiens) = proNGF (Homo sapiens) (UniProt P01138); details: cited from earlier work
proNGF (Homo sapiens), sequence (P01138 122-241): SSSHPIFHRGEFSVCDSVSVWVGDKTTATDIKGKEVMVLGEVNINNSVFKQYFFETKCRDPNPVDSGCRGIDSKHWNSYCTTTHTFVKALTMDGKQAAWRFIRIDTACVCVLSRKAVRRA

sortilin [3] = details: scintillation proximity assay; ref Andersen et al. [2014]; cited from earlier work
Source text: The role of sortilin signaling in several pathologic processes makes it a target for drug development. […] In addition to this assay, other in vitro assays including the binding of ligands to membrane fractions derived from sortilin-expressing cells (Carvelli et al. [2017]), surface plasmon resonance, and l ...

Compound: PYIL [reference compound]
- reduction of GSTpro signal by neurotensin-derived and control peptides (in words) (sortilin [1]): to a lesser extent also reduced

Compound: proNGF isolated from recombinant E. coli: Recombinant human proNGF expressed and purified from E.coli, purchased from Alamone labs
- competition against GSTpro binding to sortilin (in words) (wt sortilin): compete against GSTpro binding to wt sortilin

Compound: GSTpro (GST C-terminally linked to the pro domain from NGF) (from UniProt P01138 19-121) (domain or fragment)
- GSTpro signal compared to wt sortilin transfected cells [2]: 60 % higher

Compound: sortilin (from UniProt Q99523)
- Kd (proNGF (Homo sapiens)): 5 nM

Compound: Cc1cc(=O)oc2c(CN[C@@H](CC(C)C)C(=O)O)c(O)ccc12 [AF40431]
- blocking of sortilin-neurotensin interaction (in words) (sortilin [3]): blocked sortilin-neurotensin interaction

Compound: euk. proNGF: proNGF isolated from a mammalian expression system
- competition against GSTpro binding to sortilin (in words) (wt sortilin): compete against GSTpro binding to wt sortilin
